From PubChem BioAssay AID1963980 (Molecular Pharmacology Branch, DTP, NCI, 2024)

System: 475296-252-R-J1-PDC spheroid viability
Experiment: Anticancer human tumor 475296-252-R-J1-PDC patient-derived rectal carcinoma cell line growth inhibition [PI3K]
Details: spheroids with HUVEC and MSC; for IC50: curve of first compound; for viability, T/C: stronger effect = lower value; active = viability on the fitted dose curve at most 10% of control; inactive = the rest
In short: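 Combination activity was assessed by viability in multicellular tumor spheroids carrying HUVEC and MSC components. Agents were tested with PI3K inhibitors from a Cmax-based top dose (or 10 microM) downward in half-log increments.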

[1] = second compound 0.00316 µM, first compound 0.0316 µM
[2] = second compound 0.00316 µM, first compound 0.1 µM
[3] = second compound 0.00316 µM, first compound 0.316 µM
[4] = second compound 0.00316 µM, first compound 1 µM
[5] = second compound 0.00316 µM, first compound 3.16 µM
[6] = second compound 0.00316 µM, first compound 10 µM
[7] = second compound 0.01 µM, first compound 0.0316 µM
[8] = second compound 0.01 µM, first compound 0.1 µM
[9] = second compound 0.01 µM, first compound 0.316 µM
[10] = second compound 0.01 µM, first compound 1 µM
[11] = second compound 0.01 µM, first compound 3.16 µM
[12] = second compound 0.01 µM, first compound 10 µM
[13] = second compound 0.0316 µM, first compound 0.0316 µM
[14] = second compound 0.0316 µM, first compound 0.1 µM
[15] = second compound 0.0316 µM, first compound 0.316 µM
[16] = second compound 0.0316 µM, first compound 1 µM
[17] = second compound 0.0316 µM, first compound 3.16 µM
[18] = second compound 0.0316 µM, first compound 10 µM
[19] = second compound 0.1 µM, first compound 0.0316 µM
[20] = second compound 0.1 µM, first compound 0.1 µM
[21] = second compound 0.1 µM, first compound 0.316 µM
[22] = second compound 0.1 µM, first compound 1 µM
[23] = second compound 0.1 µM, first compound 3.16 µM
[24] = second compound 0.1 µM, first compound 10 µM
[25] = second compound 0.316 µM, first compound 0.0316 µM
[26] = second compound 0.316 µM, first compound 0.1 µM
[27] = second compound 0.316 µM, first compound 0.316 µM
[28] = second compound 0.316 µM, first compound 1 µM
[29] = second compound 0.316 µM, first compound 3.16 µM
[30] = second compound 0.316 µM, first compound 10 µM
[31] = second compound 1 µM, first compound 0.0316 µM
[32] = second compound 1 µM, first compound 0.1 µM
[33] = second compound 1 µM, first compound 0.316 µM
[34] = second compound 1 µM, first compound 1 µM
[35] = second compound 1 µM, first compound 3.16 µM
[36] = second compound 1 µM, first compound 10 µM
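Also: spheroids exposed to agents for seven days before readout.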

CC1(C)CCC(CN2CCN(c3ccc(C(=O)NS(=O)(=O)c4ccc(NCC5CCOCC5)c([N+](=O)[O-])c4)c(Oc4cnc5[nH]ccc5c4)c3)CC2)=C(c2ccc(Cl)cc2)C1 + COc1c(OCCCN2CCOCC2)ccc2c3n(c(=NC(=O)c4cnc(N)nc4)nc12)CCN3
> 10 µM: IC50 (second compound 0.00316 µM) | IC50 (second compound 0.01 µM) | IC50 (second compound 0.0316 µM) | IC50 (second compound 0.1 µM) | IC50 (second compound 0.316 µM)
inactive: viability, T/C [1] 107% | viability, T/C [2] 85.6% | viability, T/C [3] 111% | viability, T/C [4] 86.3% | viability, T/C [5] 105% | viability, T/C [6] 68.7% | viability, T/C [7] 96.2% | viability, T/C [8] 97.9% | viability, T/C [9] 87.5% | viability, T/C [10] 104% | viability, T/C [11] 86% | viability, T/C [12] 67.3% | viability, T/C [13] 98.6% | viability, T/C [14] 85.8% | viability, T/C [15] 82.5% | viability, T/C [16] 93.5% | viability, T/C [17] 79.8% | viability, T/C [18] 64% | viability, T/C [19] 91.8% | viability, T/C [20] 80.7% | viability, T/C [21] 78% | viability, T/C [22] 85% | viability, T/C [23] 70.6% | viability, T/C [24] 66.7% | viability, T/C [25] 67% | viability, T/C [26] 72.3% | viability, T/C [27] 63.7% | viability, T/C [28] 62% | viability, T/C [29] 66.8% | viability, T/C [30] 59.4% | viability, T/C [31] 63.2% | viability, T/C [32] 61.9% | viability, T/C [33] 58.8% | viability, T/C [34] 57.3% | viability, T/C [35] 62.4% | viability, T/C [36] 39.5%
5.62 µM: IC50 (second compound 1 µM)

C[C@@H](NC(=O)c1ncnc(N)c1Cl)c1ncc(C(=O)Nc2cc(C(F)(F)F)c(Cl)cn2)s1 + COc1c(OCCCN2CCOCC2)ccc2c3n(c(=NC(=O)c4cnc(N)nc4)nc12)CCN3
3.76 µM: IC50 (second compound 1 µM)
inactive: viability, T/C [1] 82.4% | viability, T/C [2] 88% | viability, T/C [3] 94.8% | viability, T/C [4] 101% | viability, T/C [5] 94.5% | viability, T/C [6] 79.3% | viability, T/C [7] 88% | viability, T/C [8] 86.8% | viability, T/C [9] 90.4% | viability, T/C [10] 85.9% | viability, T/C [11] 101% | viability, T/C [12] 67.3% | viability, T/C [13] 78.6% | viability, T/C [14] 83.7% | viability, T/C [15] 79.7% | viability, T/C [16] 78.1% | viability, T/C [17] 80.8% | viability, T/C [18] 61% | viability, T/C [19] 74.1% | viability, T/C [20] 74.1% | viability, T/C [21] 83.5% | viability, T/C [22] 69.3% | viability, T/C [23] 80.1% | viability, T/C [24] 43.3% | viability, T/C [25] 62.5% | viability, T/C [26] 61.8% | viability, T/C [27] 53.9% | viability, T/C [28] 67.4% | viability, T/C [29] 69% | viability, T/C [30] 32.6% | viability, T/C [31] 61.9% | viability, T/C [32] 58.6% | viability, T/C [33] 74.4% | viability, T/C [34] 58.9% | viability, T/C [35] 54.9% | viability, T/C [36] 23.8%
9.5 µM: IC50 (second compound 0.316 µM)
7.87 µM: IC50 (second compound 0.1 µM)
> 10 µM: IC50 (second compound 0.00316 µM) | IC50 (second compound 0.01 µM) | IC50 (second compound 0.0316 µM)

Cn1ncnc1[C@H]1c2n[nH]c(=O)c3cc(F)cc(c23)N[C@@H]1c1ccc(F)cc1 + COc1c(OCCCN2CCOCC2)ccc2c3n(c(=NC(=O)c4cnc(N)nc4)nc12)CCN3
inactive: viability, T/C (second compound 0.00316 µM, first compound 0.000316 µM) 91.6% | viability, T/C (second compound 0.00316 µM, first compound 0.001 µM) 99% | viability, T/C (second compound 0.00316 µM, first compound 0.00316 µM) 115% | viability, T/C (second compound 0.00316 µM, first compound 0.01 µM) 99.5% | viability, T/C [1] 116% | viability, T/C [2] 109% | viability, T/C (second compound 0.01 µM, first compound 0.000316 µM) 95.5% | viability, T/C (second compound 0.01 µM, first compound 0.001 µM) 104% | viability, T/C (second compound 0.01 µM, first compound 0.00316 µM) 108% | viability, T/C (second compound 0.01 µM, first compound 0.01 µM) 99.4% | viability, T/C [7] 116% | viability, T/C [8] 94.7% | viability, T/C (second compound 0.0316 µM, first compound 0.000316 µM) 93.1% | viability, T/C (second compound 0.0316 µM, first compound 0.001 µM) 98% | viability, T/C (second compound 0.0316 µM, first compound 0.00316 µM) 106% | viability, T/C (second compound 0.0316 µM, first compound 0.01 µM) 99.2% | viability, T/C [13] 94.2% | viability, T/C [14] 93.3% | viability, T/C (second compound 0.1 µM, first compound 0.000316 µM) 85.3% | viability, T/C (second compound 0.1 µM, first compound 0.001 µM) 99.1% | viability, T/C (second compound 0.1 µM, first compound 0.00316 µM) 94.8% | viability, T/C (second compound 0.1 µM, first compound 0.01 µM) 75.1% | viability, T/C [19] 85% | viability, T/C [20] 75.8% | viability, T/C (second compound 0.316 µM, first compound 0.000316 µM) 82.4% | viability, T/C (second compound 0.316 µM, first compound 0.001 µM) 73.1% | viability, T/C (second compound 0.316 µM, first compound 0.00316 µM) 71.7% | viability, T/C (second compound 0.316 µM, first compound 0.01 µM) 86.1% | viability, T/C [25] 67.8% | viability, T/C [26] 75.7% | viability, T/C (second compound 1 µM, first compound 0.000316 µM) 65.4% | viability, T/C (second compound 1 µM, first compound 0.001 µM) 65% | viability, T/C (second compound 1 µM, first compound 0.00316 µM) 63.5% | viability, T/C (second compound 1 µM, first compound 0.01 µM) 70.8% | viability, T/C [31] 70.8% | viability, T/C [32] 55.4%
> 0.1 µM: IC50 (second compound 0.00316 µM) | IC50 (second compound 0.01 µM) | IC50 (second compound 0.0316 µM) | IC50 (second compound 0.1 µM) | IC50 (second compound 0.316 µM) | IC50 (second compound 1 µM)
